From patent US20250282799A1, “SUBSTITUTED PYRIDO[4,3-d]PYRIMIDINES AS KRAS MODULATORS” (Alterome Therapeutics, Inc., priority 2023, published 2025)

Test system: KRAS G12V dependent lung adenocarcinoma cell line, NCI-H441
Test: Cellular pERK (Thr202/Tyr204) FRET/HTRF assay
Type: cell-based
Details: Homo sapiens, NCI-H441, cellular pERK (Thr202/Tyr204) HTRF, NCI-H441 cells
Summary of the method: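 NCI-H441 cells (KRAS G12V) plated overnight at 37 °C, then exposed to compounds for 1 hr at 37 °C, 5% CO2; DMSO as negative control. Lysates read by Eu-cryptate/d2 sandwich FRET (665 nm) for ERK1/2 phosphorylated at Thr202/Tyr204; IC50 from curve fit.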

Compound | IC50
[2H]C([2H])(Oc1nc(N2CCOC[C@H]3[C@H](F)[C@H]32)c2cnc(-c3cc(N)cc4ccc(C)c(C#C)c34)c(F)c2n1)[C@@]12CCCN1C[C@H](F)C2 [Example 331, 5-Ethynyl-4-(8-fluoro-4-((1S,7S,8S)-8-fluoro-5-oxa-2-azabicyclo[5.1.0]octan-2-yl)-2-(((2R,7aS)-2-fluorotetrahydro-1H-pyrrolizin-7a(5H)-yl)methoxy-d2)pyrido[4,3-d]pyrimidin-7-yl)-6-methylnaphthalen-2-amine] | < 50 nM
[2H]C([2H])(Oc1nc(N2CC[C@H](C#N)C[C@H]3[C@H](F)[C@H]32)c2cnc(-c3cc(N)cc4ccc(F)c(C#C)c34)c(F)c2n1)[C@@]12CCCN1C[C@H](F)C2 [Example 306, (1S,5R,7R,8S)-2-(7-(3-amino-8-ethynyl-7-fluoronaphthalen-1-yl)-8-fluoro-2-(((2R,7aS)-2-fluorotetrahydro-1H-pyrrolizin-7a(5H)-yl)methoxy-d2)pyrido[4,3-d]pyrimidin-4-yl)-8-fluoro-2-azabicyclo[5.1.0]octane-5-carbonitrile] | 50 to 500 nM
[2H]C([2H])(F)Oc1c(F)ccc2cc(N)cc(-c3ncc4c(N5CCOC[C@H]6[C@H](F)[C@H]65)nc(OC[C@@]56CC7(CC7)CN5CCC65CC5)nc4c3F)c12 [Example 227, 4-(2-(((S)-dihydro-5′H-dispiro[cyclopropane-1,1′-pyrrolizine-6′,1″- cyclopropan]-7a′(7′H)-yl)methoxy)-8-fluoro-4-((1S,7S,8S)-8-fluoro-5-oxa-2-azabicyclo[5.1.0]octan-2-yl)pyrido[4,3-d]pyrimidin-7-yl)-6-fluoro-5-(fluoromethoxy-d2)naphthalen-2-amine] | < 50 nM
[2H]C([2H])([2H])Oc1c(F)cc(F)c2cc(N)cc(-c3ncc4c(N5CCOC[C@H]6[C@H](F)[C@H]65)nc(OC([2H])([2H])[C@@]56CCCN5C[C@H](F)C6)nc4c3F)c12 [Example 131, 6,8-difluoro-4-(8-fluoro-4-((1S,7S,8S)-8-fluoro-5-oxa-2-azabicyclo[5.1.0]octan-2-yl)-2-(((2R,7aS)-2-fluorotetrahydro-1H-pyrrolizin-7a(5H)-yl)methoxy-d2)pyrido[4,3-d]pyrimidin-7-yl)-5-(methoxy-d3)naphthalen-2-amine] | < 50 nM
[2H]C([2H])(Oc1nc(N2CCOC[C@@H]3[C@@H](F)[C@@H]32)c2cc(Cl)c(-c3cc(N)cc(C)c3C(F)(F)F)c(F)c2n1)[C@@]12CCCN1C[C@H](F)C2 [Example 181, 3-(6-chloro-8-fluoro-4-((1R,7R,8R)-8-fluoro-5-oxa-2-azabicyclo[5.1.0]octan-2-yl)-2-(((2R,7aS)-2-fluorotetrahydro-1H-pyrrolizin-7a(5H)-yl)methoxy-d2)quinazolin-7-yl)-5-methyl-4-(trifluoromethyl)aniline] | 500 to 10000 nM
[2H]C([2H])(F)Oc1c(F)ccc2cc(N)cc(-c3ncc4c(N5CCOC[C@H]6[C@H](F)[C@H]65)nc(OC[C@@]56CCCN5CC5(CC5)C6)nc4c3F)c12 [Example 200, 4-(2-(((S)-dihydro-1′H,3′H-spiro[cyclopropane-1,2′-pyrrolizin]-7a′(5′H)-yl)methoxy)-8-fluoro-4-((1S,7S,8S)-8-fluoro-5-oxa-2-azabicyclo[5.1.0]octan-2-yl)pyrido[4,3-d]pyrimidin-7-yl)-6-fluoro-5-(fluoromethoxy-d2)naphthalen-2-amine] | < 50 nM
[2H]C([2H])(Oc1nc(N2CCOC[C@H]3[C@H](F)[C@H]32)c2cnc(-c3cc(O)c(F)c(C)c3C(F)(F)F)c(F)c2n1)[C@@]12CCCN1C[C@H](F)C2 [Example 330, 2-fluoro-5-(8-fluoro-4-((1S,7S,8S)-8-fluoro-5-oxa-2-azabicyclo[5.1.0]octan-2-yl)-2-(((2R,7aS)-2-fluorotetrahydro-1H-pyrrolizin-7a(5H)-yl)methoxy-d2)pyrido[4,3-d]pyrimidin-7-yl)-3-methyl-4-(trifluoromethyl)phenol] | 50 to 500 nM
[2H]C1([2H])CC2(CC2)[C@]2(C([2H])([2H])Oc3nc(N4CCOC[C@H]5[C@H](F)[C@H]54)c4cnc(-c5cc(N)cc6ccc(F)c(C#C)c56)c(F)c4n3)C[C@]([2H])(F)CN12 (single isomer, unassigned) [Example 204] | < 50 nM

Further lines, results first:

IC50 | Compound
< 50 nM | C#Cc1c(F)ccc2cc(N)cc(-c3ncc4c(N5CCOC[C@H]6[C@H](F)[C@H]65)nc(OC[C@]56C/C(=C\F)CN5CCC65CC5)nc4c3F)c12 [Example 362, 5-Ethynyl-6-fluoro-4-(8-fluoro-4-((1S,7S,8S)-8-fluoro-5-oxa-2-azabicyclo[5.1.0]octan-2-yl)-2-(((R,E)-6′-(fluoromethylene)tetrahydrospiro[cyclopropane-1,1′-pyrrolizin]-7a′(5′H)-yl)methoxy)pyrido[4,3-d]pyrimidin-7-yl)naphthalen-2-amine]
< 50 nM | [2H]C([2H])(Oc1nc(N2CCOC[C@H]3[C@H](F)[C@H]32)c2cnc(-c3cncc4ccc(F)c(C#C)c34)c(F)c2n1)[C@@]12CCCN1C[C@H](F)C2 [Example 114, (1S,7S,8S)-2-(7-(5-Ethynyl-6-fluoroisoquinolin-4-yl)-8-fluoro-2-(((2R,7aS)-2-fluorotetrahydro-1H-pyrrolizin-7a(5H)-yl)methoxy-d2)pyrido[4,3-d]pyrimidin-4-yl)-8-fluoro-5-oxa-2-azabicyclo[5.1.0]octane]
< 50 nM | C#Cc1c(F)ccc2cc(N)cc(-c3ncc4c(N5CCOC[C@H]6[C@H](F)[C@H]65)nc(OC[C@]56C[C@@H](F)CN5CCC6=C)nc4c3F)c12 [Example 364, 5-ethynyl-6-fluoro-4-(8-fluoro-2-(((6R,7aR)-6-fluoro-1-methylenetetrahydro-1H-pyrrolizin-7a(5H)-yl)methoxy)-4-((1S,7S,8S)-8-fluoro-5-oxa-2-azabicyclo[5.1.0]octan-2-yl)pyrido[4,3-d]pyrimidin-7-yl)naphthalen-2-amine]
< 50 nM | C#Cc1c(F)ccc2cc(N)cc(-c3ncc4c(N5CCOC[C@H]6[C@H](F)[C@H]65)nc(OC[C@@]56CCCN5C/C(=C/F)C6)nc4c3C)c12 [Example 426, 5-ethynyl-6-fluoro-4-(4-((1S,7S,8S)-8-fluoro-5-oxa-2-azabicyclo[5.1.0]octan-2-yl)-2-(((S,E)-2-(fluoromethylene)tetrahydro-1H-pyrrolizin-7a(5H)-yl)methoxy)-8-methylpyrido[4,3-d]pyrimidin-7-yl)naphthalen-2-amine]
< 50 nM | C#Cc1c(F)ccc2cc(N)cc(-c3ncc4c(N5CCOC[C@H]6[C@H](F)[C@H]65)nc(OC[C@]56C[C@@]7(C[C@@H]7F)CN5CCC65CC5)nc4c3F)c12 (single isomer, unassigned) [Example 234]

Same assay, conditions: Homo sapiens, NCI-H441, cellular pERK HTRF, NCI-H441 (KRAS G12V) cells

IC50 | Compound
< 50 nM | C#Cc1c(F)ccc2cc(N)cc(-c3ncc4c(N5CCOCC6C(Cl)C65)nc(OC[C@@]56CCCN5CC(=C)C6)nc4c3C)c12 (stereo partly drawn) [Example 443, 4-(4-(8-chloro-5-oxa-2-azabicyclo[5.1.0]octan-2-yl)-8-methyl-2-(((S)-2-methylenetetrahydro-1H-pyrrolizin-7a(5H)-yl)methoxy)pyrido[4,3-d]pyrimidin-7-yl)-5-ethynyl-6-fluoronaphthalen-2-amine]
< 50 nM | [2H]C([2H])(Oc1nc(N2CCOC[C@H]3[C@H](F)[C@H]32)c2cnc(-c3cc(N)cc4ccc(F)c(C#C)c34)c(C=C)c2n1)[C@@]12CCCN1C[C@H](F)C2 [Example 455, 5-ethynyl-6-fluoro-4-(4-((1S,7S,8S)-8-fluoro-5-oxa-2-azabicyclo[5.1.0]octan-2-yl)-2-(((2R,7aS)-2-fluorotetrahydro-1H-pyrrolizin-7a(5H)-yl)methoxy-d2)-8-vinylpyrido[4,3-d]pyrimidin-7-yl)naphthalen-2-amine]

Same assay, conditions: Homo sapiens, NCI-H441, pERK HTRF, NCI-H441 cells (KRAS G12V)

Compound | IC50
[2H]C([2H])(Oc1nc(N2CCCCC[C@@H]3[C@@H](F)[C@@H]32)c2cnc(-c3cc(N)cc4cc(F)c(F)c(C#C)c34)c(F)c2n1)[C@@]12CCCN1C[C@H](F)C2 [Example 59, 5-Ethynyl-6,7-difluoro-4-(8-fluoro-4-((1R,8S,9R)-9-fluoro-2-azabicyclo[6.1.0]nonan-2-yl)-2-(((2R,7aS)-2-fluorotetrahydro-1H-pyrrolizin-7a(5H)-yl)methoxy-d2)pyrido[4,3-d]pyrimidin-7-yl)naphthalen-2-amine] | 500 to 10000 nM
[2H]C([2H])(Oc1nc(N2CCCO[C@@H]3C[C@@H]32)c2cnc(-c3cc(O)cc4ccc(F)c(C#C)c34)c(F)c2n1)[C@@]12CCCN1C[C@H](F)C2 [Example 11, 4-(4-((1R,7S)-2-Oxa-6-azabicyclo[5.1.0]octan-6-yl)-8-fluoro-2-(((2R,7aS)-2-fluorotetrahydro-1H-pyrrolizin-7a(5H)-yl)methoxy-d2)pyrido[4,3-d]pyrimidin-7-yl)-5-ethynyl-6-fluoronaphthalen-2-ol] | 50 to 500 nM

Further lines, results first:

IC50 | Compound
50 to 500 nM | [2H]C([2H])(Oc1nc(N2CCCO[C@@H]3C[C@@H]32)c2c(OC)nc(-c3cc(N)cc4cc(F)c(F)c(C#C)c34)c(F)c2n1)[C@@]12CCCN1C[C@H](F)C2 [Example 33, 4-(4-((1R,7S)-2-Oxa-6-azabicyclo[5.1.0]octan-6-yl)-8-fluoro-2-(((2R,7aS)-2-fluorotetrahydro-1H-pyrrolizin-7a(5H)-yl)methoxy-d2)-5-methoxypyrido[4,3-d]pyrimidin-7-yl)-5-ethynyl-6,7-difluoronaphthalen-2-amine]
< 50 nM | [2H]C([2H])(Oc1nc(N2CCCO[C@H]3C[C@H]32)c2c(OC)nc(-c3cc(N)cc4cc(F)c(F)c(C#C)c34)c(F)c2n1)[C@@]12CCCN1C[C@H](F)C2 [Example 34, 4-(4-((1S,7R)-2-Oxa-6-azabicyclo[5.1.0]octan-6-yl)-8-fluoro-2-(((2R,7aS)-2-fluorotetrahydro-1H-pyrrolizin-7a(5H)-yl)methoxy-d2)-5-methoxypyrido[4,3-d]pyrimidin-7-yl)-5-ethynyl-6,7-difluoronaphthalen-2-amine]
